Source: US9085527B2, “Fatty acid acylated salicylates and their uses” (Catabasis Pharmaceuticals, Inc., priority 2008, dated 2015)
Where two headings read alike, the source gives them in different places.

Experiments:
NFκB = experiment: NFκB-driven luciferase reporter in RAW 264.7 cells challenged with LPS; format: cell-based, mouse; conditions: read-out: NFκB Inhibitory Activity, IC50 μM
Procedure: RAW 264.7 cells transfected with an NFκB-driven luciferase reporter are plated in 96 well plates. Cells are treated with Vehicle (0.1% ethanol) or test compounds for 2 hours. As a positive control for inhibition of NFκB signaling, 6 wells are treated with 10 μM dexamethasone. Cells are then challenged with 200 ng/mL LPS for 3 hours in the presence of test compounds. A subset of wells treated with vehicle should remain unstimulated with LPS to determine the floor signal of the assay. NFκB driven luciferase activity is developed by addition of BriteLite luciferase kit (Perkin-Elmer) and measured using a Victor V plate reader. NFκB activity (luciferase activity) for each treatment was normalized to Vehicle wells treated with LPS (% NFκB Response). AlamarBlue was used to monitor cell viability to ensure that inhibition of luciferase signal was not a result of compound cytotoxicity.
RAW 264.7 cells stably expressing a 3×NF-κB response element-driven luciferase reporter were seeded into 96 well plates. After 18 hours, cells were pre-treated with compounds of the invention for 2 hours, and then stimulated with LPS (lipopolysaccharide, 200 ng/mL) or vehicle control for 3 h in the presence of the compounds of the invention. A set of six vehicle was left unstimulated with LPS in order to measure the assay floor. AlamarBlue viability dye (Invitrogen) was added to cells simultaneously with the delivery of LPS (final AlamarBlue concentration of 10%). After the 3 h incubation period with LPS, cell viability was measured by reading fluorescence (excitation 550 nm, emission 595 nm) with a Perkin Elmer Victor V plate reader. Then cell media was aspirated from each well. Luciferase signal was then developed by addition of the Britelite Plus reagent (Perkin Elmer). Luciferase activity was measured with the Perkin Elmer Victor V plate reader. NF-κB activity was expressed as a percent of the vehicle control wells (stimulated with LPS). Compounds were tested at 6 dose point titrations in triplicate to determine IC50 values.

[1] = system: TNFα secretion in RAW 264.7 macrophages; experiment: TNFα release assay in RAW 264.7 macrophages stimulated with LPS; format: cell-based, mouse
Procedure: The purpose of this assay is to measure the ability of small molecules to inhibit the secretion of TNFα in cultured macrophages stimulated with lipopolysaccharide (LPS). […] Dexamethasone, a potert agonist of the glucocorticoid receptor is used a positive control for inhibition of TNFα release.
Day 1: Seed RAW 264.7 macrophages into 96 well culture plates. Remove culture media from RAW 264.7 cell growing in a 75 mm^2 tissue culture flask (cells should be at ˜70% confluence) and add 10 mL of warmed complete growth media (DMEM+10% FBS+1× pen/step). The cells are scraped into suspension using a sterile plate scraper and homogenized by pipetting up and down with a 10 mL serological pipette. The cell concentration is determined using a clinical hematoctyometer. Cells are then diluted to 150,000 cells per mL into growth media. […]
Day 2: The test compound sample plate is prepared. […] Add 100 μl of Celltiter-glo reagent to each well of the cell culture plate and afterwards measure the luminescence signal (CPS) of the plate using the Victor 5 plate reader (0.3 second read; 60 second plate shaking prior to read). […]
Use 20 μl of media supernatant per well for TNFα ELISA. […] After addition of stop solution, measure OD 450 nm using the Victor 5 plate reader (0.1 second/well scan). […]

[2] = Mus musculus, RAW264.7, 200 ng/mL LPS for 3 hours

Row | IC50 (NFκB; [2]) [µM] | Compound | other results
1 |  | CC/C=C\C/C=C\C/C=C\C/C=C\C/C=C\C/C=C\CCC(=O)Nc1ccc(O)c(C(=O)O)c1 [III-1] | IC50 (NFκB; 200 ng/mL LPS for 3 hours): < 200 µM; IC50 ([1]; 10 ng/mL LPS, 3 hours, TNFα ELISA, read-out: TNFα Secrection, IC50 μM): 146 µM
2 |  | O=C(O)c1ccccc1O [salicylate, Salicylate] | inhibition of the production of TNFα (in words, FIG. 2) ([1]; LPS): do not appreciably inhibit
3 | < 200 | CC/C=C\C/C=C\C/C=C\C/C=C\C/C=C\C/C=C\CCC(=O)NCCN(C)CCNC(=O)c1ccccc1O [Compound I-7, N-(2-((2-(4Z,7Z,10Z,13Z,16Z,19Z)-docosa-4,7,10,13,16,19-hexaenamidoethyl)(methyl)amino)ethyl)-2-hydroxybenzamide] | 
4 | < 200 | CC/C=C\C/C=C\C/C=C\C/C=C\C/C=C\C/C=C\CCC(=O)Nc1ccc(O)c(C(=O)OC)c1 [IIIb-1, methyl 5-docosa-4,7,10,13,16,19-hexaenamido-2-hydroxybenzoate] | 

Row | Compound | IC50 (NFκB; [2]) [µM] | other results
5 | CC/C=C\C/C=C\C/C=C\C/C=C\C/C=C\CCCC(=O)NCCNC(=O)c1ccccc1O [Ih-14] | < 200 | 
